The subject of assay [1] is MCF7 cells. The experiment in a line: Whole cell cytotoxicity assay: Sulforhodamine B. The class given is cell-based. The conditions noted are these: Homo sapiens, 48 hours with drug, Sulforhodamine B staining. As to the method:
Whole Cell Cytotoxicity Assay:Sulforhodamine B
The following procedure can be found on the Developmental Therapeutics Program NCI/NIH web site at http://dtp.nci.nih.gov/brancehes/btb/ivclsp.html.
1. Human tumor cell lines of HT29, A549 and MCF7 are grown in DMEM containing 10% fetal bovine serum and 2 mM L-glutamine. Cells are plated in a 96 well plate at a density of 5000 cells per well in 100 μL of growth medium and incubated at 37° C., 5% CO2, for 24 hours prior to the addition of experimental compounds.
2. Experimental drugs are solubilized in DMSO for a final concentration of 20 mM immediately prior to use. Drugs are further diluted in growth media for a total of nine drug concentrations and a growth control. At the 24-hour time point, one plate of cells is fixed in situ with TCA as a measurement of the cell population at time zero, or the time of drug addition.
3. The plates are further incubated with drug for an additional 48 hours.
4. The cells are fixed in situ by gently aspirating off the culture media and then adding 50 μL of ice cold 10% TCA per well and incubated at 4° C. for 60 minutes. The plates are washed with tap water five times and allowed to air dry for 5 minute.
5. 50 μl of a 0.4% (w/v) Sulforhodamine B solution in 1% (v/v) acetic acid is added per well and incubated for 30 minutes at room temperature.
6. Following staining, plates are washed five times with 1% acetic acid to remove any unbound dye and then allowed to air dry for 5 minutes.
7. Stain is solubilized with 100 μL of 10 mM Tris pH 10.5 per well and placed on an orbital rotator for 5 minutes.
8. Absorbance is read at 570 nm.

Assay [2] relates to HDAC (HeLa cell nuclear extract, a mosaic of HDAC enzymes). The experiment in a line: In vitro fluorescent histone deacetylase (HDAC) activity assay. It is filed as biochemical. The conditions noted are these: HeLa cell nuclear extract as HDAC source, 50 μM substrate, 10 min at room temperature (in some assays recombinant HDAC8); read-out: IC50 HDAC Inhibition. As to the method: Histone deacetylase (HDAC) activity assays were performed using the HDAC fluorescent activity assay/drug discovery kit (Biomol Research Laboratories, Plymouth Meeting, Pa.) essentially according to the manufacturer's instructions. The included HeLa cell nuclear extract, which contains a mosaic of HDAC enzymes and other nuclear factors, was used as the source of HDAC activity. The final substrate concentration in the assay mixture was 50 μM. The reaction was allowed to proceed for 10 min at room temperature before stopping the reaction. Test compounds were prepared as 20 mM stock solutions in DMSO (Molecular Biology grade, Sigma-Aldrich Co., St. Louis, Mo.) and stored at −70° C. Serial dilutions of test compounds were prepared in assay buffer immediately prior to testing. DMSO was determined in a separate trial to have no significant effect on the activity of this assay at concentrations up to 5%; the final DMSO concentration in the wells was no more than 2% and therefore DMSO effects were safely neglected. Assays were performed in white polystyrene 96-well half-area assay plates (Corning, Corning, N.Y.) and measured on a Wallace 1420 fluorescent plate reader (Wallac Oy, Turku, Finland) with an excitation wavelength of 355 nm, an emission wavelength of 460 nm, and a 1 sec signal averaging time.
In some assays recombinant HDAC8 (Biomol) was used as the source of the enzyme activity; here the final substrate concentration was 250 μM, the final concentration of HDAC8 was 0.02 u/μL and the reaction was allowed to proceed at 37° C. for 1 h before stopping. For all curves, IC50 values were calculated with the GraFit curve-fitting program (Erithacus, Horley, Surrey, UK).

One may read the GI50 as the concentration at which growth is held to half of that of the control. `O=C(NO)c1cnc(N2CCC(CNS(=O)(=O)c3ccc(-c4ccccc4)cc3)CC2)s1` [Example 5e, 2-(4-{[(1,1′-biphenylsulfonyl)amino]methyl}piperidin-1-yl)-1,3-thiazole-5-carboxylic acid hydroxyamide] displayed a GI50 in assay [1] of 2 µM.

In the case of `O=C(CN1CCN(c2ncc(C(=O)NO)s2)CC1)c1ccccc1` [Example 20B, 2-(4-(2-oxo-2-phenylethyl)-piperazin-1-yl)-1,3-thiazole-5-carboxylic acid hydroxyamide], the GI50 in assay [1] came out at 4 µM.

On to `Cc1ccc(S(=O)(=O)NC2CCN(c3ncc(C(=O)NO)s3)CC2)cc1` [Example 5d], for which, in assay [1], the GI50 worked out at 15 µM.

The term IC50 denotes the concentration needed to halve the response being measured. With `O=C(/C=C/c1cnc(N2CCN(S(=O)(=O)c3cccs3)CC2)s1)NO` [Example 4i], the IC50 in assay [2] turned out to be 0.65 µM. In assay [1], the GI50 is 18 µM.

As for `O=C(NO)c1cnc(N2CCN(C(=O)c3ccccc3)CC2)s1` [Example 22, 2-(4-benzoyl-piperazin-1-yl)-thiazole-5-carboxylic acid hydroxamide], the IC50 in assay [2] worked out at 3.5 µM. Further, it took 40 µM to inhibit growth in assay [1] by half (GI50).

`CC(=O)N1CCN(c2ncc(C(=O)NO)s2)CC1` [Example 21, 2-(4-acetyl-piperazin-1-yl)-thiazole-5-carboxylic acid hydroxamide]: the IC50 in assay [2] worked out at 2.75 µM.

`O=C(NO)c1cnc(N2CCN(C(=O)Cc3ccccc3)CC2)s1` [Example 23, 2-(4-phenylacetyl-piperazin-1-yl)-thiazole-5-carboxylic acid hydroxamide]: the IC50 in assay [2] came out at 31.6 µM. It took 20 µM to inhibit growth in assay [1] by half (GI50).

For the compound `O=C(NO)c1cnc(N2CCC(NS(=O)(=O)c3ccc4ccccc4c3)CC2)s1` [Example 5], the IC50 in assay [2] came to 0.05 µM. Also, the GI50 in assay [1] was 6 µM.

For the compound `CN(C)c1cccc2c(S(=O)(=O)N3CCN(c4ncc(/C=C/C(=O)NO)s4)CC3)cccc12` [Example 4k], the IC50 in assay [2] stood at 318 µM. In assay [1], the GI50 turned out to be 4 µM.

Regarding `O=C(/C=C/c1cnc(N2CCN(S(=O)(=O)c3ccc(F)cc3)CC2)s1)NO` [Example 4m], the IC50 in assay [2] came out at 4.7 µM. This compound returned a GI50 in assay [1] of 2.5 µM.

For `O=C(/C=C/c1cnc(N2CCN(S(=O)(=O)c3ccc(-c4ccccc4)cc3)CC2)s1)NO` [Example 4j], the IC50 in assay [2] amounted to 11.4 µM. The GI50 in assay [1] stood at 1.5 µM.

As for `O=C(NO)c1cnc(NC2CCN(S(=O)(=O)c3ccc4ccccc4c3)CC2)s1` [Example 5f, 2-{[1-(2-naphthylsulfonyl)piperidin-4-yl]amino}-1,3-thiazole-5-carboxylic acid hydroxyamide], halving of growth in assay [1] (GI50) required 20 µM.

Regarding `O=C(/C=C/c1cnc(N2CCN(S(=O)(=O)c3ccc(C(F)(F)F)cc3)CC2)s1)NO` [Example 4g], the IC50 in assay [2] stood at 14.5 µM. Moreover, in assay [1], growth was halved (GI50) at 3 µM.

With `O=C(NO)c1cnc(N2CCC(NS(=O)(=O)c3ccc(-c4ccccc4)cc3)CC2)s1` [Example 5b], in assay [1], the GI50 stood at 10 µM.

Consider `COc1ccc(S(=O)(=O)N2CCN(c3ncc(/C=C/C(=O)NO)s3)CC2)cc1OC` [Example 4c], for which the IC50 in assay [2] came out at 0.16 µM. For the same compound, the GI50 in assay [1] stood at 4 µM.

With `O=C(NO)c1cnc(CN2CCN(S(=O)(=O)c3ccc4ccccc4c3)CC2)s1` [Example 24], the IC50 in assay [2] came to 6.9 µM. In addition, in assay [1], the GI50 turned out to be 10 µM.

Consider `Cc1ccc(S(=O)(=O)NC2C3CN(c4ncc(C(=O)NO)s4)CC32)cc1` (centres unmarked) [Example 5g, 2-(6-{[(4-methylphenyl)sulfonyl]amino}-3-azabicyclo[3.1.0]hex-3-yl)-1,3-thiazole-5-carboxylic acid hydroxyamide], for which, in assay [2], the IC50 turned out to be 0.6 µM. This compound displayed a GI50 in assay [1] of 8 µM.

As to `O=C(/C=C/c1cnc(N2CCN(S(=O)(=O)c3ccc4ccccc4c3)CC2)s1)NO` [Example 4], the IC50 in assay [2] is 0.045 µM. The compound also yielded a GI50 in assay [1] of 0.7 µM.

As to `Cc1ccc(S(=O)(=O)N2CCCN(c3ncc(C(=O)NO)s3)C2)cc1` [Example 5h], in assay [2], the IC50 came out at 0.67 µM. Besides, in assay [1], halving of growth (GI50) required 3.5 µM.

Consider `O=C(NO)c1cnc(C2CCN(S(=O)(=O)c3ccc(-c4ccccc4)cc3)CC2)s1` [Example 25, 2-[1-(1,1′-biphenyl-4-ylsulfonyl)piperidin-4-yl]-1,3-thiazole-5-carboxylic acid hydroxyamide], for which the IC50 in assay [2] is 13.1 µM. This compound also came in with a GI50 in assay [1] of 100 µM.

Take `O=C(/C=C/c1cnc(N2CCN(S(=O)(=O)c3ccc([N+](=O)[O-])cc3)CC2)s1)NO` [Example 4h]: the IC50 in assay [2] was 1.63 µM. Moreover, the GI50 in assay [1] stood at 5 µM.

`O=C(NO)c1cnc(N2CCN(Cc3ccccc3)CC2)s1` [Example 17, 2-(4-Benzyl-piperazin-1-yl)-thiazole-5-carboxylic acid hydroxyamide]: halving of growth in assay [1] (GI50) required 4 µM.

On to `O=C(NO)c1cnc(N2CCN(C(=O)CCc3c[nH]c4ccccc34)CC2)s1` [Example 23b, 2-[4-(3-{1H-indol-3-yl}propanoyl)-piperazin-1-yl]-1,3-thiazole-5-carboxylic acid hydroxyamide], for which the IC50 in assay [2] stood at 0.87 µM. In assay [1], this compound registered a GI50 of 30 µM.

As to `Cc1ccc(S(=O)(=O)N2CCN(c3ncc(/C=C/C(=O)NO)s3)CC2)cc1` [Example 4f], the IC50 in assay [2] is 0.55 µM. Moreover, the GI50 in assay [1] was found to be 2 µM.

On to `COc1ccc(S(=O)(=O)N2CCN(c3ncc(/C=C/C(=O)NO)s3)CC2)cc1` [Example 4d], for which the IC50 in assay [2] is 0.4 µM. The compound further yielded a GI50 in assay [1] of 1 µM.

For the compound `O=C(NO)c1cnc(N2CCCN(S(=O)(=O)c3ccc4ccccc4c3)CC2)s1` [Example 2, 1-(2-naphthylsulfonyl)-4-(5-hydroxyaminocarbonylthiazol-2-yl)-1,4-diazepane], the IC50 in assay [2] was found to be 5.9 µM. The GI50 in assay [1] was determined as 10 µM.

`O=C(/C=C/c1cnc(N2CCN(S(=O)(=O)c3ccccc3)CC2)s1)NO` [Example 4b]: in assay [2], the IC50 worked out at 0.44 µM. In addition, it took 3 µM to inhibit growth in assay [1] by half (GI50).

With `O=C(NO)c1cnc(N2CCN(CCc3ccccc3)CC2)s1` [Example 20, 2-(4-phenylethyl-piperazin-1-yl)-thiazole-5-carboxylic acid hydroxyamide], the IC50 in assay [2] came to 118 µM.

Regarding `O=C(/C=C/c1cnc(N2CCN(S(=O)(=O)c3ccc(OC(F)(F)F)cc3)CC2)s1)NO` [Example 4e], the IC50 in assay [2] was found to be 3.24 µM. The same compound registered a GI50 in assay [1] of 6 µM.

These data come from US7345043B2, “Inhibitors of histone deacetylase” (Miikana Therapeutics, priority 2004, dated 2008).
